Laboratory results reported in ChEMBL document CHEMBL3885861, “Open TG-GATES”.

Species: Rattus norvegicus
Assay: Open TG-GATES - Regimen: Daily Repeat
Assay type: toxicity, organism-based, Sprague-Dawley
Parameters: regimen Daily Repeat, gender Male, age 6 weeks
Conditions: in vivo, po, 0 mg/kg, route gavage, dose level Control; for APTT / Bas / Eos / Fbg / Hb / Ht / Lym / MCH / MCHC / MCV / Mono / Neu / PT / Plat / RBC / Ret / WBC: tissue Blood; for KIDNEY_L / KIDNEY_R / KIDNEY_TOTAL: tissue Kidney; for LIVER: tissue Liver; for A/G / ALP / ALT / AST / BUN / CRE / Ca / Cl / DBIL / GLC / IP / K / LDH / Na / PL / RALB / TBIL / TC / TG / TP / gamma-GTP: tissue Plasma

SMILES: CCCc1cc(=O)[nH]c(=S)[nH]1 [PROPYLTHIOURACIL]
- TERMINAL_BW (72 h, time 3 day): 207.9 g
- APTT (72 h, time 3 day): 16.3 s
- Bas (72 h, time 3 day): 0%
- Eos (72 h, time 3 day): 0.8%
- Fbg (72 h, time 3 day): 235 mg/dL
- Hb (72 h, time 3 day): 13.5 g/dL
- Ht (72 h, time 3 day): 40.7%
- Lym (72 h, time 3 day): 73.4%
- MCH (72 h, time 3 day): 21.7 pg
- MCHC (72 h, time 3 day): 33.2%
- MCV (72 h, time 3 day): 65.5 fL
- Mono (72 h, time 3 day): 8.4%
- Neu (72 h, time 3 day): 17.4%
- PT (72 h, time 3 day): 12 s
- Plat (72 h, time 3 day): 113.1 x10_4/uL
- RBC (72 h, time 3 day): 622 x10_4/ul
- Ret (72 h, time 3 day): 7.6%
- WBC (72 h, time 3 day): 141.8 x10_2/uL
- KIDNEY_L (72 h, time 3 day): 0.9 g
- KIDNEY_R (72 h, time 3 day): 1 g
- KIDNEY_TOTAL (72 h, time 3 day): 1.9 g
- LIVER (72 h, time 3 day): 10.1 g
- A/G (72 h, time 3 day): 1.9
- ALP (72 h, time 3 day): 904.6 IU/L
- ALT (72 h, time 3 day): 38.6 IU/L
- AST (72 h, time 3 day): 65.4 IU/L
- BUN (72 h, time 3 day): 20.6 mg/dL
- CRE (72 h, time 3 day): 0.5 mg/dL
- Ca (72 h, time 3 day): 11.5 mg/dL
- Cl (72 h, time 3 day): 103.4 meq/L
- DBIL (72 h, time 3 day): 0.022 mg/dL
- GLC (72 h, time 3 day): 192.8 mg/dL
- IP (72 h, time 3 day): 8.7 mg/dL
- K (72 h, time 3 day): 5 meq/L
- LDH (72 h, time 3 day): 90.6 IU/L
- Na (72 h, time 3 day): 137.4 meq/L
- PL (72 h, time 3 day): 160.8 mg/dL
- RALB (72 h, time 3 day): 3.9 g/dL
- TBIL (72 h, time 3 day): 0.3 mg/dL
- TC (72 h, time 3 day): 85.6 mg/dL
- TG (72 h, time 3 day): 98.8 mg/dL
- TP (72 h, time 3 day): 6 g/dL
- gamma-GTP (72 h, time 3 day): 2 IU/L
- TERMINAL_BW ([…], time 7 day): 242.6 g
- TERMINAL_BW ([…], time 14 day): 275 g
- TERMINAL_BW ([…], time 28 day): 364.4 g
- APTT ([…], time 7 day): 16 s
- Bas ([…], time 7 day): 0%
- Eos ([…], time 7 day): 0.8%
- Fbg ([…], time 7 day): 232.4 mg/dL
- Hb ([…], time 7 day): 13.8 g/dL
- Ht ([…], time 7 day): 41%
- Lym ([…], time 7 day): 77.8%
- MCH ([…], time 7 day): 21.4 pg
- MCHC ([…], time 7 day): 33.6%
- MCV ([…], time 7 day): 63.6 fL
- Mono ([…], time 7 day): 5.6%
- Neu ([…], time 7 day): 15.8%
- PT ([…], time 7 day): 12 s
- Plat ([…], time 7 day): 105.3 x10_4/uL
- RBC ([…], time 7 day): 643.8 x10_4/ul
- Ret ([…], time 7 day): 6.7%
- WBC ([…], time 7 day): 127.9 x10_2/uL
- APTT ([…], time 14 day): 16.2 s
- Bas ([…], time 14 day): 0%
- Eos ([…], time 14 day): 0.2%
- Fbg ([…], time 14 day): 220.4 mg/dL
- Hb ([…], time 14 day): 14.7 g/dL
- Ht ([…], time 14 day): 43.9%
- Lym ([…], time 14 day): 80.8%
- MCH ([…], time 14 day): 21 pg
- MCHC ([…], time 14 day): 33.4%
- MCV ([…], time 14 day): 63 fL
- Mono ([…], time 14 day): 4%
- Neu ([…], time 14 day): 15%
- PT ([…], time 14 day): 12.1 s
- Plat ([…], time 14 day): 105.2 x10_4/uL
- RBC ([…], time 14 day): 697.6 x10_4/ul
- Ret ([…], time 14 day): 5%
- WBC ([…], time 14 day): 125.5 x10_2/uL
- APTT ([…], time 28 day): 16.6 s
- Bas ([…], time 28 day): 0%
- Eos ([…], time 28 day): 0.6%
- Fbg ([…], time 28 day): 223.8 mg/dL
- Hb ([…], time 28 day): 15.3 g/dL
- Ht ([…], time 28 day): 45.9%
- Lym ([…], time 28 day): 86.8%
- MCH ([…], time 28 day): 19.5 pg
- MCHC ([…], time 28 day): 33.4%
- MCV ([…], time 28 day): 58.4 fL
- Mono ([…], time 28 day): 3.8%
- Neu ([…], time 28 day): 8.8%
- PT ([…], time 28 day): 12.1 s
- Plat ([…], time 28 day): 105.4 x10_4/uL
- RBC ([…], time 28 day): 786.4 x10_4/ul
- Ret ([…], time 28 day): 2.8%
- WBC ([…], time 28 day): 95.2 x10_2/uL
- KIDNEY_L ([…], time 7 day): 1.1 g
- KIDNEY_R ([…], time 7 day): 1.1 g
- KIDNEY_TOTAL ([…], time 7 day): 2.1 g
- KIDNEY_L ([…], time 14 day): 1.1 g
- KIDNEY_R ([…], time 14 day): 1.1 g
- KIDNEY_TOTAL ([…], time 14 day): 2.2 g
- KIDNEY_L ([…], time 28 day): 1.3 g
- KIDNEY_R ([…], time 28 day): 1.3 g
- KIDNEY_TOTAL ([…], time 28 day): 2.6 g
- LIVER ([…], time 7 day): 11.7 g
- LIVER ([…], time 14 day): 12.2 g
- LIVER ([…], time 28 day): 15.2 g
- A/G ([…], time 7 day): 1.8
- ALP ([…], time 7 day): 1082.6 IU/L
- ALT ([…], time 7 day): 34.2 IU/L
- AST ([…], time 7 day): 67.4 IU/L
- BUN ([…], time 7 day): 20.8 mg/dL
- CRE ([…], time 7 day): 0.5 mg/dL
- Ca ([…], time 7 day): 11.5 mg/dL
- Cl ([…], time 7 day): 106.2 meq/L
- DBIL ([…], time 7 day): 0.016 mg/dL
- GLC ([…], time 7 day): 180 mg/dL
- IP ([…], time 7 day): 8 mg/dL
- K ([…], time 7 day): 5.2 meq/L
- LDH ([…], time 7 day): 95.6 IU/L
- Na ([…], time 7 day): 139 meq/L
- PL ([…], time 7 day): 158.4 mg/dL
- RALB ([…], time 7 day): 3.9 g/dL
- TBIL ([…], time 7 day): 0.4 mg/dL
- TC ([…], time 7 day): 77 mg/dL
- TG ([…], time 7 day): 127 mg/dL
- TP ([…], time 7 day): 6.1 g/dL
- gamma-GTP ([…], time 7 day): 1.8 IU/L
- A/G ([…], time 14 day): 1.8
- ALP ([…], time 14 day): 719.8 IU/L
- ALT ([…], time 14 day): 30 IU/L
- AST ([…], time 14 day): 59.4 IU/L
- BUN ([…], time 14 day): 18.8 mg/dL
- CRE ([…], time 14 day): 0.7 mg/dL
- Ca ([…], time 14 day): 11 mg/dL
- Cl ([…], time 14 day): 107.4 meq/L
- DBIL ([…], time 14 day): 0.006 mg/dL
- GLC ([…], time 14 day): 183.6 mg/dL
- IP ([…], time 14 day): 8.1 mg/dL
- K ([…], time 14 day): 4.4 meq/L
- LDH ([…], time 14 day): 87.4 IU/L
- Na ([…], time 14 day): 140.8 meq/L
- PL ([…], time 14 day): 150.4 mg/dL
- RALB ([…], time 14 day): 3.9 g/dL
- TBIL ([…], time 14 day): 0.3 mg/dL
- TC ([…], time 14 day): 69.4 mg/dL
- TG ([…], time 14 day): 111.2 mg/dL
- TP ([…], time 14 day): 6.1 g/dL
- gamma-GTP ([…], time 14 day): 0.8 IU/L
- A/G ([…], time 28 day): 1.8
- ALP ([…], time 28 day): 612.6 IU/L
- ALT ([…], time 28 day): 27 IU/L
- AST ([…], time 28 day): 59.8 IU/L
- BUN ([…], time 28 day): 20.6 mg/dL
- CRE ([…], time 28 day): 0.7 mg/dL
- Ca ([…], time 28 day): 10.8 mg/dL
- Cl ([…], time 28 day): 106.8 meq/L
- DBIL ([…], time 28 day): 0.012 mg/dL
- GLC ([…], time 28 day): 169.4 mg/dL
- IP ([…], time 28 day): 6.7 mg/dL
- K ([…], time 28 day): 4.5 meq/L
- LDH ([…], time 28 day): 84 IU/L
- Na ([…], time 28 day): 139.8 meq/L
- PL ([…], time 28 day): 161.6 mg/dL
- RALB ([…], time 28 day): 4 g/dL
- TBIL ([…], time 28 day): 0.2 mg/dL
- TC ([…], time 28 day): 76.6 mg/dL
- TG ([…], time 28 day): 153.8 mg/dL
- TP ([…], time 28 day): 6.3 g/dL
- gamma-GTP ([…], time 28 day): 1.6 IU/L
